The target of test [1] is Cyclin-dependent kinase 2/cyclin E (Homo sapiens) (UniProt P24864+P24941+O96020). The settings on record: Asteroidea.
Description: Inhibition of Cyclin-dependent kinase 2-cyclin E
In test [2] the target is Cyclin-dependent kinase 1/cyclin B (Homo sapiens) (UniProt P06493+P14635+Q8WWL7+O95067). The conditions noted are these: Asteroidea.
Description: Inhibition of Cyclin-dependent kinase 1-cyclin B
In test [3] the target is Cyclin-dependent kinase 2/cyclin A (Homo sapiens) (UniProt P24941+P20248+P78396). Description: Inhibition of Cyclin-dependent kinase 2-cyclin A. Format: protein-complex assay.
Test [4] concerns the target T1, Cyclin-dependent kinase 4/cyclin D (Homo sapiens) (UniProt P11802+P24385+P30281+P30279). Description: Inhibition of Cyclin-dependent kinase 4-cyclin D (Inactive). Format: protein-complex assay. The settings on record: Asteroidea.
The target of test [5] is T1, Cyclin-dependent kinase 4/cyclin D (Homo sapiens). Description: Inhibition of Cyclin-dependent kinase 4-cyclin D. Format: protein-complex assay.

Active and inactive are the calls of the source. No cut-off for these calls is given here.

T1 sequence (P11802 whole entry, looked up): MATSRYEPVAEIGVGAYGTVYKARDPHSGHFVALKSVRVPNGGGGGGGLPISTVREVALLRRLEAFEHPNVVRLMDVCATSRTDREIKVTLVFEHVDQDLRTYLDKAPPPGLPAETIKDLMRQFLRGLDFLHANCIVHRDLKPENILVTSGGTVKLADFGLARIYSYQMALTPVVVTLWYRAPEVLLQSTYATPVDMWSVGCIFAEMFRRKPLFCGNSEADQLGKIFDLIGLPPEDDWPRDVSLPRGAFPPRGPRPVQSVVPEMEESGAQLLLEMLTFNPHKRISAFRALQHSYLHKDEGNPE
T1 sequence (P24385 whole entry, looked up): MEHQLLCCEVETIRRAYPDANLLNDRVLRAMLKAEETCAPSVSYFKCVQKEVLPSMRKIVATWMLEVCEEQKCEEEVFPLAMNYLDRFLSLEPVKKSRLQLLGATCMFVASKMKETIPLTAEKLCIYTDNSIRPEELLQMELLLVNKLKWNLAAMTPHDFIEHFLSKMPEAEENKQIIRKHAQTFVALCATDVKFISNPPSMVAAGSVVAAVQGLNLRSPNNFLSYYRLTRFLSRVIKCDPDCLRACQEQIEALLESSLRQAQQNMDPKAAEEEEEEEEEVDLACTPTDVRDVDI
T1 sequence (P30279 whole entry, looked up): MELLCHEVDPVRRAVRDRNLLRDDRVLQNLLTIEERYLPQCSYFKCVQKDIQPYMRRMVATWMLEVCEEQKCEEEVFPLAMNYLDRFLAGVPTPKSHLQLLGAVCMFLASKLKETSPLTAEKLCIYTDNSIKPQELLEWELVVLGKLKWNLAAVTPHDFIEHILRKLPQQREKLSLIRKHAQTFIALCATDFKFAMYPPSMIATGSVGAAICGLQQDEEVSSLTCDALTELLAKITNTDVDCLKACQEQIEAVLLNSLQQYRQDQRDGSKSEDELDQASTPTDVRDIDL
T1 sequence (P30281 whole entry, looked up): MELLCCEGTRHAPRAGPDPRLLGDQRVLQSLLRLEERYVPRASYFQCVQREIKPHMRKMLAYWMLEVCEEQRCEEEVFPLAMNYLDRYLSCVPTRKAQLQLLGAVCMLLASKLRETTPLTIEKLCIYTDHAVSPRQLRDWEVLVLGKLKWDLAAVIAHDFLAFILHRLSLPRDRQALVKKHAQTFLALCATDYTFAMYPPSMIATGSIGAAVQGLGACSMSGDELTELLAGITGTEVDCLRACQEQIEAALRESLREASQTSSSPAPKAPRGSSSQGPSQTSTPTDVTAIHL

For `OCCCNc1cc(-c2ccnc(Nc3cccc(Cl)c3)n2)ccn1`, the ID50 in test [1] is 50 nM; in test [2] it was 20 nM.
Consider `O=C1Cc2c([nH]c3ccc(Br)cc23)-c2ccccc2N1`, for which, in test [2], the ID50 came to 35 nM.
Compound `CN1CC[C@H](c2c(O)cc(O)c3c(=O)cc(-c4ccccc4Cl)oc23)[C@H](O)C1` displayed an ID50 in test [3] of 100 nM.
Consider `CC(C)[C@H](CO)Nc1nc(Nc2ccc(C(=O)O)c(Cl)c2)c2ncn(C(C)C)c2n1`, for which the ID50 in test [3] turned out to be 6 nM.
`Cn1cnc2c(NCc3ccccc3)nc(NCCO)nc21`: in test [4], the IA entry was “inactive”.
`CCn1cnc2c(N)nc(N(c3cccc(Cl)c3)[C@@H]3CCCC[C@@H]3N)nc21`: the ID50 in test [5] came out at 29 nM; in test [1], 9 nM; in test [2], 16 nM.
Regarding `CC(C)n1c(=O)ccc2ncc(Nc3ccc(N4CCN(C)CC4)cc3)cc21`, the ID50 is 58 nM in test [3], 45 nM in test [5], 270 nM in test [1] and 675 nM in test [2].
As to `CNS(=O)(=O)c1ccc(/N=N/c2c(O)[nH]c3ccc4ncsc4c23)cc1`, the ID50 in test [1] stood at 3.5 nM.
Compound `CNS(=O)(=O)Cc1ccc(/N=N/c2c(O)[nH]c3ccc4ncccc4c23)cc1` gave an ID50 in test [1] of 6.2 nM.

For the origin of these results see ChEMBL document CHEMBL1133166, “Cyclin-dependent kinase inhibitors: useful targets in cell cycle regulation” (J Med Chem, 2000).
